We go through 27 compounds from patent US8937167B2 (Washington University, priority 2009, dated 2015).

Read-outs that look alike come from different tables or passages of the source. Where only a bound is given, the exact number is not on record here.

In one test the test system is UTI89 biofilm. As to the kind of experiment: UTI89 type 1 dependent biofilm formation (inhibition/prevention) assay on PVC, crystal violet. Type of test: cell-based, uropathogenic E. coli UTI89. Particulars: Escherichia coli. The procedure:
In yet other embodiments, activity of the compound may be measured using the ability of the compound to prevent or disrupt biofilm formation.
UTI89 biofilm was grown in LB+/− mannoside for 24 h at 22° C. in PVC plates and quantitated using crystal violet. UTI89 biofilm for confocal microscopy was grown in LB for 24 h at 22° C. on PVC coverslips. Mannoside was then added and biofilm was grown for an additional 16 h. Coverslips were then washed in PBS, fixed in 2% paraformaldehyde and stained with SYTO9 prior to confocal microscopy. For all animal experiments UTI89 or PBC-1 was grown 2×24 h statically in LB at 37° C. and inoculated at a dose of 1×10^7 bacteria in 50 μl. All mice used were female C3H/HeN (Jackson). For the pretreatment studies, bacteria were incubated with mannoside for 20 min prior to inoculation into the mouse. […] For CFU counts, bladders were harvested at 6 hpi and placed in 1 mL PBS. Bladders were then homogenized, diluted and plated on LB. After growth at 37° C. overnight, bacterial counts were determined. LacZ staining and gentamicin protection assays were performed at 6 hpi. […] Water was changed daily with fresh antibiotics. Standard growth curve assays and hemagglutination assays were performed with TMP-SMZ. All statistical analysis performed was a two-tailed Mann-Whitney U test.
Biofilm assay. UTI89 was grown in LB broth in wells of PVC microtiter plates at 23° C. in the presence of individual mannosides at varying concentrations. After 48 h of growth, wells were rinsed with water and stained with crystal violet for quantification as described. For biofilm disruption activity in PVC plates, UTI89 was grown in LB broth in wells of PVC microtiter plates at 23° C. After 24 h of growth, mannoside was added and biofilms were grown for an additional 16 h. Wells were then rinsed, stained with crystal violet and quantified. For biofilm disruption activity on PVC coverslips, UTI89 was grown in LB broth in 50 mL conicals containing PBC coverslips at 23° C. After 24 h of growth, 0.3 μM ZFH-2056 was added and biofilm was grown for an additional 16 h.
UTI89 biofilm was grown in LB+/− mannoside for 24 h at 22° C. in PVC plates and quantified using crystal violet. UTI89 biofilm for confocal microscopy was grown in LB for 24 h at 22° C. on PVC coverslips followed by mannoside treatment for 16 h. For all animal experiments UTI89 or PBC-1 was grown 2×24 h statically in LB at 37° C. and inoculated at a dose of 1×10^7 bacteria in 50 μl. All mice used were female C3H/HeN (Harlan). For the chronic UTI model, mice were infected for 2 weeks prior to treatment with mannoside. […] For oral dosing, 100 μl of 10 mg/ml (50 mg/kg) or 20 mg/ml (100 mg/kg) mannoside in 8% DMSO was inoculated with a gavage needle 30 min prior to inoculation of bacteria. […] For CFU counts, bladders were harvested at 6 hpi and placed in 1 mL PBS. Bladders were then homogenized, diluted and plated on LB. After growth at 37° C. overnight, bacterial counts were determined. LacZ staining and gentamicin protection assays were performed at 6 hpi. […] Water was changed daily with fresh antibiotics. Standard growth curve and hemagglutination assays were performed. All statistical analysis performed was a two-tailed Mann-Whitney U test. […] Compounds 7-10 were prepared using slightly modified procedures. All compounds are >95% pure as determined by HPLC/MS and ^1H NMR.
UTI89 was grown in LB broth in wells of PVC microtiter plates at 23° C. in the presence of individual mannosides at varying concentrations. After 48 h of growth, wells were rinsed with water and stained with crystal violet for quantification as described. For biofilm disruption activity in PVC plates, UTI89 was grown in LB broth in wells of PVC microtiter plates at 23° C. After 24 h of growth, mannoside was added and biofilms were grown for an additional 16 h. Wells were then rinsed, stained with crystal violet and quantified. […]

The target in a further test is FimH (Escherichia coli, UniProt Q1R2J4). Particulars: for HAI Titer EC>50: Table 21.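 For all read-outs here: hemagglutination inhibition of guinea pig erythrocytes agglutinated by type 1 piliated uropathogenic E. coli via FimH mannose binding, quantified through serial dilutions of compound.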
The mark [1] stands for this setting: read-out: Biofilm Prevention IC50.
Setting [2] is: read-out: Biofilm IC50 (approximated).
Setting [3] is: read-out: Biofilm IC50 [calculated].

Consider `CNC(=O)c1cccc(-c2ccc(OC3O[C@@H](CO)[C@@H](O)[C@H](O)[C@H]3O)c(Cl)c2)c1` (stereo partly drawn) [Compound 4ZFH170, 3-[3-chloro-4-[(3R,4S,5S,6S)-3,4,5-trihydroxy-6-(hydroxymethyl)tetrahydropyran-2-yl]oxy-phenyl]-N-methyl-benzamide], for which, in the test on UTI89 biofilm (setting [1]), the IC50 amounted to 0.523 µM. For the same compound, the “HAI Titer EC>90” value amounted to 0.000125 mM at FimH and 0.000125 mM at FimH (Table 22, ZFH/JWJ codes). At FimH (ZFH/JWJ codes), the “HAI Titer EC>50” value is 0.125 µM.
As to `CCCCOC1OC(CO)C(O)C(O)C1O` (stereo not shown) [Compound 1ZFH84], in the test on UTI89 biofilm (setting [1]), the half-maximal inhibitory concentration (IC50) is around 500 µM. On FimH (ZFH/JWJ codes), the “HAI Titer EC>50” value was 125.000 µM.
For `COC(=O)c1cccc(-c2ccc(O[C@H]3O[C@H](CO)[C@@H](O)[C@H](O)[C@@H]3O)c(OC)c2)c1` [Compound 4e, Methyl 3-[3-methoxy-4-[(2R,3S,4S,5S,6R)-3,4,5-trihydroxy-6-(hydroxymethyl)tetrahydropyran-2-yl]oxy-phenyl]benzoate], the half-inhibitory concentration (IC50) in the test on UTI89 biofilm (setting [1]) came out at 0.89 µM. The “HAI Titer EC>90” value at FimH (Table 17, Examples 30-36 numbering) amounted to 0.00019 mM.
For `COC(=O)c1sc(-c2ccc(OC3OC(CO)C(O)C(O)C3O)cc2)cc1NC(N)=O` (stereo not shown) [Compound 4ZFH52], the IC50 in the test on UTI89 biofilm (setting [1]) was determined as 0.181 µM. For the same compound, on FimH (ZFH/JWJ codes), the “HAI Titer EC>50” value came out at 0.016 µM.
On to `O=C1NC2C=CC(OC3OC(CO)C(O)C(O)C3O)=CC2O1` (stereo not shown) [Compound 1ZFH256, 6-[3,4,5-trihydroxy-6-(hydroxymethyl)tetrahydropyran-2-yl]oxy-3a,7a-dihydro-3H-1,3-benzoxazol-2-one], for which the half-maximal inhibitory concentration (IC50) is 10 to 25 µM in the test with UTI89 biofilm (setting [2]) and around 15 µM with UTI89 biofilm (setting [3]). Further, the “HAI Titer EC>90” value on FimH came to 0.004 mM.
Regarding `CCc1ccc(OC2OC(CO)C(O)C(O)C2O)cc1` (stereo not shown) [Compound 1ZFH178, 2-(4-ethylphenoxy)-6-(hydroxymethyl)tetrahydropyran-3,4,5-triol], the figures for the half-maximal inhibitory concentration (IC50) in the test with UTI89 biofilm (setting [2]) and with UTI89 biofilm (setting [3]) were 10 to 100 µM and around 90 µM, respectively. Moreover, the “HAI Titer EC>90” value on FimH turned out to be 0.023 mM.
In the case of `COC(=O)c1cccc(-c2ccc(C(=O)NCC3O[C@@H](CO)[C@@H](O)[C@H](O)[C@H]3O)cc2)c1` (stereo partly drawn) [Compound 4ZFH131, methyl 3-[4-[[(3R,4R,5S,6S)-3,4,5-trihydroxy-6-(hydroxymethyl)tetrahydropyran-2-yl]methylcarbamoyl]phenyl]benzoate], the “HAI Titer EC>90” value came out at 0.016 mM at FimH and 0.016 mM at FimH (Table 22, ZFH/JWJ codes). The “HAI Titer EC>50” value on FimH (ZFH/JWJ codes) came to 16.000 µM.
Take `O=c1[nH]ccc2ccc(-c3ccc(OC4OC(CO)C(O)C(O)C4O)cc3)cc12` (stereo not shown) [Compound 5ZFH63]: the “HAI Titer EC>50” value at FimH (ZFH/JWJ codes) is 0.100 µM.
For `NC1C(O)C(CO)OC(OCc2ccccc2)C1O` [Benzyl 3-amino-3-deoxy-a-D-mannoside, reference compound], the “HAI Titer EC>90” value at FimH (mM) was above 1 mM.
For the compound `COC(=O)c1cncc(-c2ccc(O[C@H]3O[C@H](CO)[C@@H](O)[C@H](O)[C@@H]3O)cc2)c1` [Compound 12b, Methyl 5-[4-[(2R,3S,4S,5S,6R)-3,4,5-trihydroxy-6-(hydroxymethyl)tetrahydropyran-2-yl]oxyphenyl]pyridine-3-carboxylate], at FimH (Table 19, Examples 30-36 numbering), the “HAI Titer EC>90” value came out at 0.00019 mM.
As to `CNC(=O)c1cccc(-c2ccc(OC3OC(CO)C(O)C(O)C3O)cc2C(=O)OC)c1` (stereo not shown) [Compound 2ZFH265, methyl 2-[3-(methylcarbamoyl)phenyl]-5-[3,4,5-trihydroxy-6-(hydroxymethyl)tetrahydropyran-2-yl]oxy-benzoate], the “HAI Titer EC>90” value at FimH amounted to 0.002 mM.
With `CCCCO[C@H]1O[C@H](CO)[C@@H](O)[C@H](O)[C@@H]1O` [butyl-α-D-mannoside, reference compound], the EC90 on FimH (read-out: HAI Titer EC90) was 125 µM.
In the case of `COC(=O)c1cccc(OC2OC(CO)C(O)C(O)C2O)c1` (stereo not shown) [Compound 3j], the “fold loss of HA potency” value at FimH (carboxylic acid relative to matched pair methyl ester 3j) is on record as 10 fold.
For `NC(=O)Nc1csc(-c2ccc(OC3OC(CO)C(O)C(O)C3O)cc2)c1` (stereo not shown) [Compound 4ZFH303], the “HAI Titer EC>50” value at FimH (ZFH/JWJ codes) worked out at 1.000 µM.
Regarding `OCC1OC(n2cc(-c3ccccc3)nn2)C(O)C(O)C1O` (stereo not shown) [Compound 4ZFH105, 2-(hydroxymethyl)-6-(4-phenyltriazol-1-yl)tetrahydropyran-3,4,5-triol], the “HAI Titer EC>90” value at FimH is 0.032 mM.
As to `OC[C@@H]1OC(Oc2ccc(-c3ccc4ccncc4c3)cc2)[C@H](O)[C@@H](O)[C@@H]1O` (stereo partly drawn) [Compound 4ZFH275, (2S,3S,4S,5R)-2-(hydroxymethyl)-6-[4-(7-isoquinolyl)phenoxy]tetrahydropyran-3,4,5-triol], the “HAI Titer EC>90” value on FimH was 0.00075 mM; on FimH (Table 22, ZFH/JWJ codes), 0.00075 mM. The “HAI Titer EC>50” value at FimH (ZFH/JWJ codes) was determined as 0.750 µM.
As to `N#Cc1ccc(-c2ccc(OC3OC(CO)C(O)C(O)C3O)cc2)cc1` (stereo not shown) [Compound 3ZFH70, 4-[4-[3,4,5-trihydroxy-6-(hydroxymethyl)tetrahydropyran-2-yl]oxyphenyl]benzonitrile], the “HAI Titer EC>90” value on FimH was 0.008 mM.
Turning to `CN1CCN(C(=O)c2cccc(-c3ccc(OC4OC(CO)C(O)C(O)C4O)cc3)c2)CC1` (stereo not shown) [Compound 3ZFH261, (4-methylpiperazin-1-yl)-[3-[4-[3,4,5-trihydroxy-6-(hydroxymethyl)tetrahydropyran-2-yl]oxyphenyl]phenyl]methanone], the “HAI Titer EC>90” value on FimH was determined as 0.004 mM.
Turning to `O=C(NCC1O[C@@H](CO)[C@@H](O)[C@H](O)[C@H]1O)c1ccc(Br)cc1` (stereo partly drawn) [Compound 4ZFH123, 4-bromo-N-[[(3R,4R,5S,6S)-3,4,5-trihydroxy-6-(hydroxymethyl)tetrahydropyran-2-yl]methyl]benzamide], the “HAI Titer EC>90” value on FimH is 0.016 mM; at FimH (Table 22, ZFH/JWJ codes), 0.016 mM. On FimH (ZFH/JWJ codes), the “HAI Titer EC>50” value turned out to be 16.000 µM.
In the case of `CS(=O)(=O)Nc1ccccc1-c1ccc(OC2OC(CO)C(O)C(O)C2O)cc1` (stereo not shown) [Compound 3ZFH163, N-[2-[4-[3,4,5-trihydroxy-6-(hydroxymethyl)tetrahydropyran-2-yl]oxyphenyl]phenyl]methanesulfonamide], on FimH, the “HAI Titer EC>90” value worked out at 0.012 mM.
Turning to `COC(=O)c1cccc(OC2OC(CO)C(O)C(O)C2O)c1` (stereo not shown) [Compound 1ZFH101, methyl 3-[3,4,5-trihydroxy-6-(hydroxymethyl)tetrahydropyran-2-yl]oxybenzoate], the “HAI Titer EC>90” value on FimH worked out at 0.006 mM.
`O=[N+]([O-])c1ccc(COC2OC(CO)C(O)C(O)C2O)cc1` (stereo not shown) [Compound 1ZFH152, 2-(hydroxymethyl)-6-[(4-nitrophenyl)methoxy]tetrahydropyran-3,4,5-triol]: the “HAI Titer EC>90” value at FimH was 0.06 mM.
On the same count and under the same terms, with `CC(=O)Nc1ccccc1OC1OC(CO)C(O)C(O)C1O` (stereo not shown) [Compound 1ZFH95, N-[2-[3,4,5-trihydroxy-6-(hydroxymethyl)tetrahydropyran-2-yl]oxyphenyl]acetamide] the figure was 0.125 mM.
`CC(=O)Nc1ccc(-c2ccc(OC3OC(CO)C(O)C(O)C3O)cc2)cc1` (stereo not shown) [Compound 4ZFH277]: the “HAI Titer EC>50” value at FimH (ZFH/JWJ codes) was determined as 1.000 µM.
With `Cc1cc(=O)oc2cc(OC3OC(CO)C(O)C(O)C3O)ccc12` [4-methylumbellferyl-α-D-mannoside, reference compound], in the test on UTI89 biofilm (setting [3]), the IC50 is 1.7 µM.
As to `O=C(NCCCCOC1OC(CO)C(O)C(O)C1O)c1ccc(-c2c3ccc(=O)cc-3oc3cc(O)ccc23)c(C(=O)O)c1` (stereo not shown) [Compound 1ZFH134], the “HAI Titer EC>50” value on FimH (ZFH/JWJ codes) turned out to be 125.000 µM.
As to `OCC1OC(Oc2ccc(-c3cccnc3)cc2)C(O)C(O)C1O` (stereo not shown) [Compound 3ZFH93, 2-(hydroxymethyl)-6-[4-(3-pyridyl)phenoxy]tetrahydropyran-3,4,5-triol], at FimH, the “HAI Titer EC>90” value amounted to 0.002 mM.
